In PubChem BioAssay (NCI):
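Protocol summary: plate cells (96-well), add compound at 5 concentrations, incubate 48 h, interpolate endpoints linearly. At the GI50, growth is halved. At the TGI there is no net growth.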

How the values were obtained:
Assay in all cases: inhibition of tumour cell growth, NCI panel, 48 h
UO-31 renal = system: UO-31 renal
DU-145 prostate = system: DU-145 prostate
HCC-2998 colon = system: HCC-2998 colon
OVCAR-3 ovarian = system: OVCAR-3 ovarian
TK-10 renal = system: TK-10 renal
COLO 205 colon = system: COLO 205 colon
MDA-MB-231 breast = system: MDA-MB-231 breast
SK-MEL-2 melanoma = system: SK-MEL-2 melanoma
786-0 renal = system: 786-0 renal
UACC-62 melanoma = system: UACC-62 melanoma
NCI-H460 lung = system: NCI-H460 lung
OVCAR-8 ovarian = system: OVCAR-8 ovarian
NCI-H226 lung = system: NCI-H226 lung
SK-MEL-5 melanoma = system: SK-MEL-5 melanoma
A549 NSCLC = system: A549 NSCLC
IGROV1 ovarian = system: IGROV1 ovarian
HL-60(TB) leukemia = system: HL-60(TB) leukemia
HOP-62 NSCLC = system: HOP-62 NSCLC
UACC-257 melanoma = system: UACC-257 melanoma
MDA-MB-435 = system: MDA-MB-435
T-47D breast = system: T-47D breast
SF-539 CNS = system: SF-539 CNS
NCI-H23 lung = system: NCI-H23 lung
HT29 colon = system: HT29 colon
BT-549 breast = system: BT-549 breast
SK-MEL-28 melanoma = system: SK-MEL-28 melanoma
LOX IMVI melanoma = system: LOX IMVI melanoma
PC-3 prostate = system: PC-3 prostate
OVCAR-4 ovarian = system: OVCAR-4 ovarian
CCRF-CEM leukemia = system: CCRF-CEM leukemia
OVCAR-5 ovarian = system: OVCAR-5 ovarian
RXF 393 renal = system: RXF 393 renal
U251 CNS = system: U251 CNS
ACHN renal = system: ACHN renal
NCI/ADR-RES ovarian = system: NCI/ADR-RES ovarian
SF-268 CNS = system: SF-268 CNS
SW-620 colon = system: SW-620 colon
SNB-19 CNS = system: SNB-19 CNS
MOLT-4 leukemia = system: MOLT-4 leukemia
HCT-116 colon = system: HCT-116 colon
MCF7 breast = system: MCF7 breast
SN12C renal = system: SN12C renal
NCI-H522 lung = system: NCI-H522 lung
A498 renal = system: A498 renal
SR leukemia = system: SR leukemia
K-562 leukemia = system: K-562 leukemia
RPMI-8226 leukemia = system: RPMI-8226 leukemia
KM12 colon = system: KM12 colon
HCT-15 colon = system: HCT-15 colon
HS 578T breast = system: HS 578T breast
SNB-75 CNS = system: SNB-75 CNS
HOP-92 NSCLC = system: HOP-92 NSCLC
SF-295 CNS = system: SF-295 CNS
CAKI-1 renal = system: CAKI-1 renal
MALME-3M melanoma = system: MALME-3M melanoma
SK-OV-3 ovarian = system: SK-OV-3 ovarian

O=C(Nc1ccccc1O)c1ccc(Oc2cccc(C(=O)Nc3ccccc3O)c2)cc1
GI50 (UO-31 renal): 1.36 µM | TGI (UO-31 renal): 6.39 µM | GI50 (DU-145 prostate): 3.37 µM | TGI (DU-145 prostate): 11.9 µM | GI50 (HCC-2998 colon): 3.62 µM | TGI (HCC-2998 colon): 11.9 µM | GI50 (OVCAR-3 ovarian): 3.28 µM | TGI (OVCAR-3 ovarian): 9.86 µM | GI50 (TK-10 renal): 7.64 µM | TGI (TK-10 renal): 30.2 µM | GI50 (COLO 205 colon): 15.7 µM | TGI (COLO 205 colon): 29.9 µM | GI50 (MDA-MB-231 breast): 2.22 µM | TGI (MDA-MB-231 breast): 11.8 µM | GI50 (SK-MEL-2 melanoma): 1.73 µM | TGI (SK-MEL-2 melanoma): 5.87 µM | GI50 (786-0 renal): 2.84 µM | TGI (786-0 renal): 12.2 µM | GI50 (UACC-62 melanoma): 1.22 µM | TGI (UACC-62 melanoma): 5.1 µM | GI50 (NCI-H460 lung): 1.21 µM | TGI (NCI-H460 lung): 11 µM | GI50 (OVCAR-8 ovarian): 2.03 µM | TGI (OVCAR-8 ovarian): 11.2 µM | GI50 (NCI-H226 lung): 2.06 µM | TGI (NCI-H226 lung): 10.8 µM | GI50 (SK-MEL-5 melanoma): 1.13 µM | TGI (SK-MEL-5 melanoma): 2.85 µM | GI50 (A549 NSCLC): 2.91 µM | TGI (A549 NSCLC): 16.6 µM | GI50 (IGROV1 ovarian): 5.25 µM | TGI (IGROV1 ovarian): 27.3 µM | GI50 (HL-60(TB) leukemia): 1.37 µM | TGI (HL-60(TB) leukemia): 10.4 µM | GI50 (HOP-62 NSCLC): 2.24 µM | TGI (HOP-62 NSCLC): 12.5 µM | GI50 (UACC-257 melanoma): 1.69 µM | TGI (UACC-257 melanoma): 8.21 µM | GI50 (MDA-MB-435): 0.294 µM | TGI (MDA-MB-435): 10.2 µM | GI50 (T-47D breast): 3.13 µM | TGI (T-47D breast): 10.1 µM | GI50 (SF-539 CNS): 1.61 µM | TGI (SF-539 CNS): 6.3 µM | GI50 (NCI-H23 lung): 2.99 µM | TGI (NCI-H23 lung): 11.3 µM | GI50 (HT29 colon): 4.93 µM | TGI (HT29 colon): 16.9 µM | GI50 (BT-549 breast): 2.53 µM | TGI (BT-549 breast): 27 µM | GI50 (SK-MEL-28 melanoma): 1.84 µM | TGI (SK-MEL-28 melanoma): 12.2 µM | GI50 (LOX IMVI melanoma): 2.24 µM | TGI (LOX IMVI melanoma): 12.2 µM | GI50 (PC-3 prostate): 1.84 µM | TGI (PC-3 prostate): 10.4 µM | GI50 (OVCAR-4 ovarian): 2.42 µM | TGI (OVCAR-4 ovarian): 9.03 µM | GI50 (CCRF-CEM leukemia): 0.409 µM | TGI (CCRF-CEM leukemia): 9.15 µM | GI50 (OVCAR-5 ovarian): 12.9 µM | TGI (OVCAR-5 ovarian): 35 µM | GI50 (RXF 393 renal): 1.81 µM | TGI (RXF 393 renal): 6.42 µM | GI50 (U251 CNS): 2.13 µM | TGI (U251 CNS): 8.16 µM | GI50 (ACHN renal): 2.64 µM | TGI (ACHN renal): 11.9 µM | GI50 (NCI/ADR-RES ovarian): 1.5 µM | TGI (NCI/ADR-RES ovarian): 6.7 µM | GI50 (SF-268 CNS): 2.91 µM | TGI (SF-268 CNS): 15 µM | GI50 (SW-620 colon): 3.42 µM | TGI (SW-620 colon): 12.7 µM | GI50 (SNB-19 CNS): 2.08 µM | TGI (SNB-19 CNS): 14.4 µM | GI50 (MOLT-4 leukemia): 0.767 µM | TGI (MOLT-4 leukemia): 6.85 µM | GI50 (HCT-116 colon): 2.84 µM | TGI (HCT-116 colon): 10.4 µM | GI50 (MCF7 breast): 2.57 µM | TGI (MCF7 breast): 11.5 µM | GI50 (SN12C renal): 2.84 µM | TGI (SN12C renal): 17.9 µM | GI50 (NCI-H522 lung): 1.07 µM | TGI (NCI-H522 lung): 4.73 µM | GI50 (A498 renal): 0.0225 µM | TGI (A498 renal): 5.06 µM | GI50 (SR leukemia): 0.56 µM | TGI (SR leukemia): 11.4 µM | GI50 (K-562 leukemia): 0.819 µM | TGI (K-562 leukemia): > 100 µM | GI50 (RPMI-8226 leukemia): 2.84 µM | TGI (RPMI-8226 leukemia): 8.78 µM | GI50 (KM12 colon): 3.17 µM | TGI (KM12 colon): 11.9 µM | GI50 (HCT-15 colon): 2.52 µM | TGI (HCT-15 colon): 12.3 µM | GI50 (HS 578T breast): 2.05 µM | TGI (HS 578T breast): 12.2 µM | GI50 (SNB-75 CNS): 1.67 µM | TGI (SNB-75 CNS): 7.73 µM | GI50 (HOP-92 NSCLC): 1.57 µM | TGI (HOP-92 NSCLC): 6.07 µM | GI50 (SF-295 CNS): 2.88 µM | TGI (SF-295 CNS): 9.85 µM | GI50 (CAKI-1 renal): 1.91 µM | TGI (CAKI-1 renal): 8.86 µM | GI50 (MALME-3M melanoma): 1.48 µM | TGI (MALME-3M melanoma): 14 µM | GI50 (SK-OV-3 ovarian): 4.42 µM | TGI (SK-OV-3 ovarian): 17.2 µM
